Assay results taken from PubChem BioAssay AID1996.
≈ marks a conversion by molar mass, not a printed value.

Details: buffer; pH 7.4; 200.0 µM

| SMILES | solubility kinetic |
| --- | --- |
| CN(C(=O)COC(=O)/C=C/c1ccccc1[N+](=O)[O-])c1ccccc1 | 47.5 µg/mL (≈ 140 µM) |
| O=C(/C=C/c1ccc(Cl)cc1)Nc1ccc(N2CCOCC2)cc1 | < 0.4 µg/mL |
| O=C1CN(C(=O)COC(=O)c2ccc(C(F)(F)F)cc2)c2ccccc2N1 | 2.4 µg/mL (≈ 6.34 µM) |
| O=c1c2[nH]cnc2n(-c2ccccc2)c(=O)n1Cc1ccccc1 | 35.1 µg/mL (≈ 110 µM) |
| CCC(C)NC(=O)c1ccc2c(c1)N(Cc1ccccc1)C(=O)CS2 (stereo not given) | 3.6 µg/mL (≈ 10.2 µM) |
| CC(C)(CC(=O)O)CC(=O)Nc1ccc(Oc2ccc(C(C)(C)C)cc2)nc1 | > 57.7 µg/mL |
| CCOc1nc2ccccc2cc1/C=C/C(=O)O | 13.1 µg/mL (≈ 53.9 µM) |
| COc1ccc(C(=O)OCC(=O)NC2CCCC2)c(OC)c1 | 44.8 µg/mL (≈ 146 µM) |
| O=C(N1CCCC1)C12CC3CCC(CC(C3)C1)C2 | 28.4 µg/mL (≈ 115 µM) |
| Cc1ccccc1/C=C\c1nc2ccccc2c(=O)[nH]1 | 1.2 µg/mL (≈ 4.57 µM) |
| CN(C)/C=C1/NC(=S)NC1=O | > 25.7 µg/mL |
| CC(C)(C)C(=O)Nc1ccc(-c2cnco2)cc1 | > 36.6 µg/mL |
| Cc1noc(C)c1COc1ccc(C(=O)Nc2ccccc2)cc1 | 0.8 µg/mL (≈ 2.48 µM) |
| Cc1ccc(Cl)cc1NC(=O)CCC(=O)O | > 36.3 µg/mL |
| CCCOc1ccc(NC(=O)CCC(=O)NC(C)c2ccccc2)cc1 (stereo not given) | 0.5 µg/mL (≈ 1.41 µM) |
| CC1NC(=O)NC1CCCCCC(=O)Nc1ccc(F)cc1 (stereo not given) | > 46.1 µg/mL |
| O=C(NCCc1ccccc1)C1(c2ccccc2)CCCC1 | 28.9 µg/mL (≈ 98.5 µM) |
| CN(CC#CC(O)(c1ccccc1)c1ccccc1)C(C)(C)C | > 46.1 µg/mL |
| Nc1ccccc1C(=O)NCCN1CCNC1=O | 14.2 µg/mL (≈ 57.2 µM) |
| CN(C)CCNC(=O)C(c1ccccc1)c1ccccc1 | 37.9 µg/mL (≈ 134 µM) |
| C=CCn1c(SCC(C)=O)nc2scc(-c3ccc(C)o3)c2c1=O | 1.6 µg/mL (≈ 4.44 µM) |
| O=C(Cn1c(C(=O)O)cc2ccccc21)c1ccccc1 | 39.2 µg/mL (≈ 140 µM) |
| FC(F)(F)c1cnc(COc2cc(Cl)cc(Cl)c2)c(Cl)c1 | < 0.8 µg/mL |
| CCOC(=O)N1CCN(CC(=O)c2ccc(O)c(C)c2O)CC1 | 40.7 µg/mL (≈ 126 µM) |

| SMILES | solubility kinetic |
| --- | --- |
| O=C(O)Cc1sc(NCc2ccco2)nc1-c1ccccc1 | 46.8 µg/mL (≈ 149 µM) |
| O=C(c1cccc([N+](=O)[O-])c1)N1CCCC(C(=O)N2CCCCCC2)C1 (stereo not given) | > 53.9 µg/mL |
| CCC(CC)NC(=O)Nc1ccccc1C(F)(F)F | 10.8 µg/mL (≈ 39.4 µM) |
| N#Cc1cccc(CS(=O)(=O)c2ccc(Cl)cc2)c1 | 38.2 µg/mL (≈ 131 µM) |
| COc1ccc(NC(=O)COC(C)=O)cc1OC | > 38 µg/mL |
| Cc1cccc(NC(=O)CSc2nc(C3CC3)nc3ccccc23)c1 | 0.3 µg/mL (≈ 0.858 µM) |
| COc1ccccc1CNC(=O)COC(=O)c1ccccn1 | > 45 µg/mL |
| CCOCCCn1c(SCC(=O)N2CCOCC2)nc2ccccc2c1=O | > 58.7 µg/mL |
| CCCCCCCNc1cccc(C)c1 | < 0.4 µg/mL |
| COc1ccccc1CNC(=O)c1ccc(C)s1 | > 39.2 µg/mL |
| C=CCN(C(=O)COC(=O)c1cc[n+]([O-])cc1)c1nc(-c2ccccc2)cs1 | 6.1 µg/mL (≈ 15.4 µM) |
| CCN1CCN(C(=O)c2cc(-c3ccc(Cl)s3)nc3ccccc23)CC1 | 53.5 µg/mL (≈ 139 µM) |
| COc1cc(NC(=O)COC(=O)CCc2nc3ccccc3c(=O)[nH]2)cc(OC)c1 | 60.7 µg/mL (≈ 148 µM) |
| S=C(c1ccc(-c2ccc(Br)cc2)o1)N1CCCCC1 | < 0.8 µg/mL |
| CC(C)CCNC1c2ccccc2C(=O)N1Cc1ccccc1.Cl (stereo not given) | 6.2 µg/mL |
| c1ccc(-c2nc(-c3ccc(-c4ccon4)s3)no2)cc1 | 0.6 µg/mL (≈ 2.03 µM) |
| Cc1cccc(NC(=O)c2ccc(-c3ccccc3[N+](=O)[O-])o2)c1 | 12.8 µg/mL (≈ 39.7 µM) |
| O=C(CN1c2cccc3cccc(c23)S1(=O)=O)NCCc1ccc(F)cc1 | 1.9 µg/mL (≈ 4.94 µM) |
| CC(NCc1cccc(S(=O)(=O)N(C)C)c1)c1ccc(F)cc1 (stereo not given) | 37.1 µg/mL (≈ 110 µM) |
| O=C(NCC1CC1)Nc1cccc(C(F)(F)F)c1 | 29.3 µg/mL (≈ 113 µM) |
| N#Cc1cccc(NC(=O)Cc2ccccc2)c1 | > 35.4 µg/mL |
| COc1ccc(C(=O)N2CCn3c2nc2ccccc23)cc1 | 6.7 µg/mL (≈ 22.8 µM) |
| O=C1CSC(=Nc2ccc(F)cc2)N1 | > 31.5 µg/mL |
| Cc1cc([N+](=O)[O-])ccc1NC(=O)CCC(=O)N1CCCC1 | > 45.8 µg/mL |

| SMILES | solubility kinetic |
| --- | --- |
| O=C(COC(=O)COc1ccccc1)Nc1ccc2c(c1)OCCO2 | 15.3 µg/mL (≈ 44.6 µM) |
| COCc1c(C(=O)OCC(=O)c2ccc[nH]2)oc2ccccc12 | 11.1 µg/mL (≈ 35.4 µM) |
| CCC(C(=O)NCc1ccc(C)cc1)c1ccccc1 (stereo not given) | 20.2 µg/mL (≈ 75.6 µM) |
| O=C(NN1CCOCC1)c1ccc(Cl)cc1Cl | > 41.3 µg/mL |
| Cc1cc2c(cc1S(=O)(=O)N(C)c1ccccc1)n(C)c(=O)n2C | > 51.8 µg/mL |
| CCc1cccc(NS(=O)(=O)c2ccc3c(c2)NC(=O)CC(=O)N3)c1 | > 53.9 µg/mL |
| Clc1nc(CN2CCOCC2)nc2sc3c(c12)CCC3 | 44.5 µg/mL (≈ 144 µM) |
| O=C(COc1ccccc1Cl)Nc1cccnc1 | 33.7 µg/mL (≈ 128 µM) |
| COc1ccc(-c2c3c(=O)n(C)c(=O)n(C)c3cn2-c2ccc(O)cc2)cc1 | 20.4 µg/mL (≈ 54.1 µM) |
| COc1ccc2c(CC(=O)Nc3nccs3)coc2c1 | 7 µg/mL (≈ 24.3 µM) |
| COc1ccc(Cl)cc1C(=O)OCC(=O)Nc1sccc1C(N)=O | 6.6 µg/mL (≈ 17.9 µM) |
| c1ccc(Cc2c[nH]c3ccccc23)cc1 | 6.7 µg/mL (≈ 32.3 µM) |
| OC(c1ccccc1)c1nc2ccccc2[nH]1 (stereo not given) | > 33.6 µg/mL |
| O=C(COC(=O)c1ccc([N+](=O)[O-])cc1)NCCC1=CCCCC1 | 3.1 µg/mL (≈ 9.33 µM) |
| CCOC(=O)c1[nH]c2cc3c(cc2c1NC(=O)CN1CCCC1)OCO3 | 18 µg/mL (≈ 50.1 µM) |
| CCc1ccc(NC(=O)Cn2cnc3c(=O)n(C)c(=O)n(C)c32)cc1 | 18.6 µg/mL (≈ 54.5 µM) |
| Cc1cc(NS(C)(=O)=O)c(=O)n(Cc2cccc(F)c2)c1 | > 46.6 µg/mL |
| Cl.O=C(CN1CCCC1)N1c2ccccc2C=Cc2ccccc21 | > 51.1 µg/mL |
| O=C(Nc1ccsc1C(=O)N1CCCC1)c1ccccc1 | < 0.3 µg/mL |
| CCOc1cccc(NC(=O)/C(C#N)=C/c2cccnc2)c1 | 31.7 µg/mL (≈ 108 µM) |
| Cc1ccc2nc(SCC(=O)NCc3cccs3)[nH]c2c1 | > 47.6 µg/mL |
| O=C(Cc1ccccc1)NC1CCSc2ccccc21 (stereo not given) | 11.7 µg/mL (≈ 41.3 µM) |
| Cc1ccc(CN(C)C2CCN(C)CC2)cc1 | 31.3 µg/mL (≈ 135 µM) |
| CN1CCN(CCCN2c3ccccc3Sc3ccc(Cl)cc32)CC1.O=S(=O)(O)CCS(=O)(=O)O | 73.3 µg/mL |

| SMILES | solubility kinetic |
| --- | --- |
| CCOc1ncc(S(=O)(=O)N2CCN(CC)CC2)cc1C(=O)O | > 51.5 µg/mL |
| Nc1nc(SCCO)[nH]c(=O)c1NC(=O)c1ccco1 | > 44.4 µg/mL |
| Cc1ccc(C)c(-n2ccnc2SCC(N)=O)c1 | > 39.2 µg/mL |
| O=C(COc1ncnc2ccccc12)Nc1cccc([N+](=O)[O-])c1 | 15.1 µg/mL (≈ 46.6 µM) |
| O=C(Nc1ccon1)Nc1cc(Cl)ccc1Cl | 1.4 µg/mL (≈ 5.15 µM) |
| O=C1N=C(N2CCOCC2)S/C1=C/c1cc2c(cc1[N+](=O)[O-])OCO2 | 44.8 µg/mL (≈ 123 µM) |
| CCOc1cccc(C2CC(=O)Nc3cc(OC)c(OC)cc32)c1 (stereo not given) | 12.5 µg/mL (≈ 38.2 µM) |
| Nc1cc(N2CCCC2)ccc1[N+](=O)[O-] | 2.8 µg/mL (≈ 13.5 µM) |
| CN(C)c1ccc(CNCC2CCCO2)cc1.Cl (stereo not given) | > 40.6 µg/mL |
| O=C(CN1C(=O)COc2ccc(Cl)cc21)N1CCOCC1 | > 46.6 µg/mL |
| O=C(NCC(c1ccc(F)cc1)N1CCOCC1)c1ccc(-c2ccccc2)cc1 (stereo not given) | 3.2 µg/mL (≈ 7.91 µM) |
| COc1ccc(/C=C/C(=O)O)cc1S(=O)(=O)NCc1ccco1 | 48.8 µg/mL (≈ 145 µM) |
| Cc1ccc(SC(=O)c2c(C)noc2-c2cc(C)on2)cc1 | 3 µg/mL (≈ 9.54 µM) |
| CCNC(=S)Nc1ccc(NC(=O)c2ccccc2O)cc1 | 21.9 µg/mL (≈ 69.4 µM) |
| C=CCn1c(=O)c2c(nc3n2CCCN3Cc2ccccc2)n(C)c1=O | 19.5 µg/mL (≈ 55.5 µM) |
| COc1cc(OC)cc(C(=O)NCCNC(=O)c2ccccn2)c1 | > 49.4 µg/mL |
| CC(=O)Nc1ccc(NC(=O)c2nccnc2C(=O)O)cn1 | > 45.2 µg/mL |
| CCN(CC)C(=O)c1c(C)[nH]c(=S)c(C#N)c1-c1ccco1 | > 47.3 µg/mL |
| OC(CN1CCOCC1)Cn1c2ccccc2c2ccccc21 (stereo not given) | > 46.6 µg/mL |
| CN1C(=O)C(=Cc2cccnc2)C(=O)N(C)C1=O | 32.3 µg/mL (≈ 132 µM) |
| Cc1ccc(C(=O)NCCCNC(=O)c2ccco2)cc1C | 43.4 µg/mL (≈ 144 µM) |
| Cc1ccccc1OCC(=O)Nc1ccc(N2CCN(C)CC2)c(Cl)c1 | 12.3 µg/mL (≈ 32.9 µM) |
| CCCCn1c(=O)c(C(C)=O)c(O)c2ccccc21 | 26.6 µg/mL (≈ 103 µM) |
| Cc1ccc2nc(SCC(=O)Nc3nonc3C)[nH]c2c1 | > 45.5 µg/mL |

| SMILES | solubility kinetic |
| --- | --- |
| O=C(c1ccc(Br)cc1)N1CCCc2ccccc21 | 14 µg/mL (≈ 44.3 µM) |
| COc1ccc(CNC(=O)COC(=O)/C=C/c2ccc(Cl)cc2)cc1 | < 0.8 µg/mL |
| Cc1cc(F)ccc1NCc1ccc([N+](=O)[O-])cc1 | 0.3 µg/mL (≈ 1.15 µM) |
| Cc1ccc(NS(=O)(=O)c2ccc(C(=O)NCc3ccccn3)cc2)cc1 | 53.8 µg/mL (≈ 141 µM) |
| CC(C)CCNC(=O)C1(c2cccs2)CCOCC1 | > 42.2 µg/mL |
| CCS(=O)(=O)c1nc2ccccc2n1Cc1ccccn1 | > 45.2 µg/mL |
| CCOc1ccc(-c2csc3nc[nH]c(=O)c23)cc1 | 18.9 µg/mL (≈ 69.4 µM) |
| O=C1NC(c2ccc(Br)cc2)Oc2ccccc21 (stereo not given) | 2.1 µg/mL (≈ 6.9 µM) |
| COc1ccc2c(c1)C(C)CC(C)(C)N2C(=O)Nc1ccccc1 (stereo not given) | 13.4 µg/mL (≈ 41.3 µM) |
| CN(Cc1ccc(Cl)cc1)C(=O)c1ccc2ccccc2n1 | > 46.6 µg/mL |
| Nc1nc(COc2ccc(F)cc2)nc(N2CCCCC2)n1 | 1.9 µg/mL (≈ 6.26 µM) |
| COc1ccc(CCNC(=O)CCC(=O)NC2CCCCC2)cc1OC | > 54.4 µg/mL |
| CC1CN(C2=CC(=O)CCC2)CC(C)O1 (stereo not given) | > 31.4 µg/mL |
| Cc1ccccc1C(=O)NNC(=O)c1ccc2nc[nH]c2c1 | > 44.1 µg/mL |
| O=C(CNC(=O)c1ccccc1F)N/N=C/c1ccco1 | > 43.4 µg/mL |
| CC1(C)NC(=O)N(Cc2cc(=O)n3ccsc3n2)C1=O | > 43.8 µg/mL |
| CN(C)C(=O)c1c(NC(=O)c2ccccc2)sc2c1CCC2 | 42.9 µg/mL (≈ 136 µM) |
| CC(CCc1ccccc1)NC(=O)CSc1cccc[n+]1[O-] (stereo not given) | 40.6 µg/mL (≈ 128 µM) |
| COC(=O)c1ccc(NC(=O)COc2ccc([N+](=O)[O-])cc2)cc1 | 0.4 µg/mL (≈ 1.21 µM) |
| S=C(NCCc1ccccc1)N1CCCC1 | > 35.2 µg/mL |
| Cc1ccc(NC(=S)Nc2ccccn2)c(C)c1 | 3.1 µg/mL (≈ 12 µM) |
| c1cncc(-c2noc(-c3ccc4ccccc4c3)n2)c1 | < 0.2 µg/mL |
| Cc1cc(C(=O)Nc2ccccc2N2CCOCC2)c(C)o1 | 10.3 µg/mL (≈ 34.3 µM) |
| O=C(CCNC(=O)c1ccccc1)NCCCc1ccccc1 | > 46.6 µg/mL |
